We go through 16 compounds from patent US8815919B2, “Oxadiazole derivatives” (Merck Serono SA, priority 2009, dated 2014).

In experiment [1] the target is T1, S1P1 (Homo sapiens, UniProt P21453). Briefly: S1P1 internalization assay in S1P1-U2OS cells (S1P1-EGFP), cell imaging. Type of experiment: cell-based. The arrangement: host or cells: U2OS (human bone osteosarcoma epithelial cells), CMV promoter, geneticin selection. The note with it: 1 hour incubation. As for the experimental part: Cellular functional assays: Internalization of Sphingosine-1-phosphate receptor 1 (S1P1) in a human Cell line (U2OS) in a 384-well format using a Cell Imaging analysis. • Jo, E.; Sanna, M. G.; Gonzalez-Cabrera, P. J.; Thangada, S.; Tigyi, S.; Osborne, D. A.; Hla, T.; Parrill, A. L.; Rosen, H. Chem. Biol. 2005, 12, 703
The S1P1 internalization assay was performed in 384 well plates (Corning® 384 black with clear bottom 3712) using S1P1-U2OS cells from Biolmage (C039A), a human epithelial cell line (Human Bone Osteosarcoma Epithelial Cells). These cells expressed the human S1P1 Receptor fused to the green fluorescent protein (EGFP). A standard CMV promoter (cytomegalovirus promoter) controls the expression of S1P1-EGFP and continuous expression was maintained by addition of geneticin to the culture medium.
S1P1 Receptor desensitization induced the internalization of the membrane-localized S1P1-EGFP fusion protein to endosomes, which can be monitored by cell imaging analysis. The cells are plated in low serum medium (Dulbecco's Modified Eagle Medium (DMEM) with Glutamax-1 and high glucose, 1% Penicillin/Streptomycin, 1% Fetal Calf Serum (FCS), 0.5 mg/ml Geneticin) overnight.
The next day, S1P1-U2OS cells are incubated in 20 μl serum free medium (DMEM with Glutamax-1 and high glucose, 0.1% of fatty-acid free Bovin Serum Albumin (BSA), 10 mM, N′-2-Hydroxyethylpiperazine-N′-2 ethanesulphonic acid (HEPES) 1M) for 2 hours at 37° C./5% CO2. The cells are then treated with 4 μl compounds/agonists (6×/3% DMSO) for a total volume of 24 μl, and plates are incubated for 1 hour at 37° C./5% CO2.
S1P1-U2OS cells are fixed with 25 μl Paraformaldehyde 8% and stained with Hoechst 33345 dye (1:1000) for 20 minutes.
They were then washed 3 times with Phosphate Buffered Saline (PBS) and plates are sealed. The internalization of the receptor S1P1-EGFP is measured on Cellomics by calculating the “spot count per object” (“object” corresponds to nuclear and “spot” corresponds to S1P1-EGFP receptor). Internalization data were observed thanks to vHCS View and analyzed using Genedata® software.
Target sequence in this assay (P21453 whole entry): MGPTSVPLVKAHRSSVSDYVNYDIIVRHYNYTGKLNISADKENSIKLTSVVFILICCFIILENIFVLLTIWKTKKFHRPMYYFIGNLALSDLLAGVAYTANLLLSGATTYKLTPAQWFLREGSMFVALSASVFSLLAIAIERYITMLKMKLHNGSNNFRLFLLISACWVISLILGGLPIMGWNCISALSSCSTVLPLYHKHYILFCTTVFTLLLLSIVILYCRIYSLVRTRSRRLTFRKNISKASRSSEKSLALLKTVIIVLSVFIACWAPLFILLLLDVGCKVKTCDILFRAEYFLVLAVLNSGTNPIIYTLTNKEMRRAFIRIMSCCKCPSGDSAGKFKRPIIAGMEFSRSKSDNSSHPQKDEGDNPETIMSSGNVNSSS

The target of another experiment is S1P3 (Homo sapiens, UniProt Q99500). Briefly: Receptor binding assay, [33P]sphingosine 1-phosphate competition, S1P3 membranes, WGA SPA beads. The protocol: (§1) Membranes were prepared from CHO cells expressing S1P1 or S1P3 for use in ligand and […] binding studies. Cells were suspended in 50 mM TRIS, pH 7.4, 2 mM EDTA, 250 mM Sucrose (buffer A) and 1× Complete protease inhibitor cocktail (Roche), and disrupted at 4° C. by N2 decompression using a cell disruption bomb (Parr Instrument). Following centrifugation at 1000 RPM for 10 min at 4° C., the supernatant was diluted (2×) in buffer A and centrifuged again at 19000 RPM for 75 min at 4° C. The pellet was then suspended in 10 mM HEPES, pH 7.4, 1 mM EDTA, 250 mM Sucrose (Buffer B), and 1× Complete EDTA-free protease inhibitor cocktail and homogenized using a potter. Membranes were flash frozen in liquid N2 and stored at −80° C.
(§2) Receptor binding assay: [33P]sphingosine 1-phosphate (3000 Ci/mmol; American Radiolabeled Chemicals, Inc.) was added to test compounds in 20% DMSO by competition. Membranes and WGA SPA beads (GE Healthcare) were added to give a final volume of 100 μl in 96-well plates or 50 μl in 384-well plates with assay concentrations of […] [33P]sphingosine 1-phosphate (respectively for S1P1 or S1P3), 50 mM HEPES, pH 7.5, 5 mM MgCl2, 100 mM NaCl, 0.4% fatty acid-free BSA, 1-5 μg/well of proteins in 96-well plates vs 0.6-1 μg/well of proteins in 384-well plates and 100 μg/well of WGA SPA beads in 96-well plates vs 75 μg/well of WGA SPA beads in 384-well plates. Binding was performed for 60 min at RT on a shaker and bound radioactivity was measured on a PerkinElmer 1450 MicroBeta counter. Triplicate samples were averaged and normalized as percentage of inhibition relative to total binding (only DMSO in well) and nonspecific binding (1000-fold excess of unlabeled S1P). Binding data were analyzed using the GraphPad Prism program or Genedata software.

The target of experiment [2] is T1, S1P1. Briefly: Receptor binding assay, [33P]sphingosine 1-phosphate competition, S1P1 membranes, WGA SPA beads. As for the experimental part:
as §1, §2
Target sequence in this assay (P21453 whole entry, species assumed): as the sequence (P21453 whole entry) above

[3] abbreviates: 96 well-plate, read-out: S1P3 binding Ki (M) (96 well-plate).
The mark [4] stands for this setting: 96 well-plate, read-out: S1P1 binding Ki (M) (96 well-plate).
Where [5] appears, read: 384 well-plate, read-out: S1P3 binding Ki (M) (384 well-plate).
[6] abbreviates: 384 well-plate, read-out: S1P1 binding Ki (M) (384 well-plate).

Structures can show the parent of a compound that is named as a salt. Where two headings read alike, the source gives them in different places.

Chain of S1P3 (Q99500 whole entry, species assumed): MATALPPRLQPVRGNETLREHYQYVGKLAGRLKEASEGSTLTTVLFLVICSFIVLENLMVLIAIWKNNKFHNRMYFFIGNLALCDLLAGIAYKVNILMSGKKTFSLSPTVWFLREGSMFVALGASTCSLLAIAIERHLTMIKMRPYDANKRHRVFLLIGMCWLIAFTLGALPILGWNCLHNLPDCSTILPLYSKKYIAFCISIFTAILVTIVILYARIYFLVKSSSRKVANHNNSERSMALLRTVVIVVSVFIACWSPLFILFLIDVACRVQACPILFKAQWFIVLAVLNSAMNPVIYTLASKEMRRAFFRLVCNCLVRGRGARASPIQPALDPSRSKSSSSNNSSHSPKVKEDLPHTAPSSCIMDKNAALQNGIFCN

`C[C@H]1CCCCN1c1ccc(-c2nc(-c3cccc(CN(C)CC(=O)O)c3)no2)cc1C(F)(F)F` [Example 46, N-methyl-N-(3-{5-[4-[(2S)-2-methylpiperidin-1-yl]-3-(trifluoromethyl)phenyl]-1,2,4-oxadiazol-3-yl}benzyl)glycine, hydrochloride salt] returned a concentration for a half-maximal effect (EC50) on S1P1 [1] of 5.19 nM. Further, the Ki at S1P3 (setting [3]) is 1.31e-07 M; on S1P1 [2] (setting [4]) it was 1.07e-10 M.
The compound `COCc1cc(-c2nc(-c3cc(F)c(C(=O)NCCC(=O)O)cc3F)no2)ccc1-c1ccccc1C` [Example 47, N-(2,5-difluoro-4-{5-[2-(methoxymethyl)-2′-methylbiphenyl-4-yl]-1,2,4-oxadiazol-3-yl}benzoyl)-beta-alanine] registered an EC50 at S1P1 [1] of 20.2 nM. Further, the Ki worked out at 4.03e-07 M at S1P3 (setting [3]), 5.2e-07 M at S1P3 (setting [5]) and 8.5e-10 M at S1P1 [2] (setting [4]).
In the case of `Cc1ccccc1-c1ccc(-c2nc(-c3cccc(COCC(=O)O)c3)no2)cc1C(F)(F)F` [Example 48, [(3-{5-[2′-methyl-2-(trifluoromethyl)biphenyl-4-yl]-1,2,4-oxadiazol-3-yl}benzyl)oxy]acetic acid], the response at S1P1 [1] was half-maximal at 7.12 nM (EC50). In addition, the Ki at S1P3 (setting [3]) came to 6.03e-07 M; at S1P3 (setting [5]), 1.08e-06 M; on S1P1 [2] (setting [4]) it was 9.79e-10 M; on S1P1 [2] (setting [6]), 1.97e-09 M.
The matching figures for `COCc1cc(-c2nc(-c3ccc(CN(C)CC(=O)O)cc3)no2)ccc1-c1ccccc1C` [Example 51, N-(4-{5-[2-(methoxymethyl)-2′-methylbiphenyl-4-yl]-1,2,4-oxadiazol-3-yl}benzyl)-N-methylglycine, hydrochloride salt]: 4.92 nM, 7.32e-07 M, 9.17e-07 M, 3.38e-10 M and 2.1e-09 M.
On to `COCc1cc(-c2nc(-c3ccc(CN(C)CC(=O)O)c(F)c3)no2)ccc1-c1ccccc1C` [Example 52, N-(2-fluoro-4-{5-[2-(methoxymethyl)-2′-methylbiphenyl-4-yl]-1,2,4-oxadiazol-3-yl}benzyl)-N-methylglycine, hydrochloride salt], for which a half-maximal response at S1P1 [1] (EC50) required 2.52 nM. The Ki on S1P3 (setting [3]) is 1.27e-07 M; on S1P1 [2] (setting [4]) it was 1.96e-10 M.
The matching figures for `COCc1cc(-c2nc(-c3ccc(CN(C)CC(=O)O)c(Br)c3)no2)ccc1-c1ccccc1C` [Example 53, N-(2-bromo-4-{5-[2-(methoxymethyl)-2′-methylbiphenyl-4-yl]-1,2,4-oxadiazol-3-yl}benzyl)-N-methylglycine, hydrochloride salt]: 7.61 nM, 7e-07 M and 2.14e-10 M.
Regarding `COCc1cc(-c2nc(-c3ccc(CN(C)CC(=O)O)cc3)no2)ccc1-c1ccccc1F` [Example 54, N-(4-{5-[2′-fluoro-2-(methoxymethyl)biphenyl-4-yl]-1,2,4-oxadiazol-3-yl}benzyl)-N-methylglycine, hydrochloride salt], the EC50 on S1P1 [1] turned out to be 6.36 nM. Moreover, the Ki amounted to 3.21e-07 M at S1P3 (setting [3]), 2.59e-07 M on S1P3 (setting [5]), 3.04e-10 M at S1P1 [2] (setting [4]) and 9.76e-10 M at S1P1 [2] (setting [6]).
For `COCc1cc(-c2nc(-c3ccc(CN(C)CC(=O)O)c(F)c3)no2)ccc1-c1ccccc1F` [Example 55, N-(2-fluoro-4-{5-[2′-fluoro-2-(methoxymethyl)biphenyl-4-yl]-1,2,4-oxadiazol-3-yl}benzyl)-N-methylglycine, hydrochloride salt], the half-maximal effective concentration (EC50) at S1P1 [1] is 8.46 nM. The inhibition constant (Ki) came to 7.12e-08 M at S1P3 (setting [3]), 9.2e-08 M on S1P3 (setting [5]), 1.59e-10 M on S1P1 [2] (setting [4]) and 5.23e-10 M at S1P1 [2] (setting [6]).
With `CC1CCCCN1c1ccc(-c2nc(-c3cc(F)cc(CN(C)CC(=O)O)c3)no2)cc1C(F)(F)F` (centres unmarked) [Example 56, N-(3-fluoro-5-{5-[4-(2-methylpiperidin-1-yl)-3-(trifluoromethyl)phenyl]-1,2,4-oxadiazol-3-yl}benzyl)-N-methylglycine, hydrochloride salt], on S1P1 [1], the response was half-maximal at 20.2 nM (EC50). For the same compound, the results for the Ki at S1P3 (setting [3]) and on S1P1 [2] (setting [4]) were 3.79e-08 M and 3.25e-10 M, respectively.
For `COCc1cc(-c2nc(-c3cc(F)cc(CN(C)CC(=O)O)c3)no2)ccc1-c1ccccc1F` [Example 57, N-(3-fluoro-5-{5-[2′-fluoro-2-(methoxymethyl)biphenyl-4-yl]-1,2,4-oxadiazol-3-yl}benzyl)-N-methylglycine, hydrochloride salt], it took 8.46 nM to reach a half-maximal effect on S1P1 [1] (EC50). For the same compound, the inhibition constant (Ki) on S1P3 (setting [3]) came to 7.22e-09 M; on S1P1 [2] (setting [4]) it was 1.14e-10 M.
Taken in the same sequence, the figures for `COCc1cc(-c2nc(-c3cccc(CN(CC(=O)O)C(C)C)c3)no2)ccc1-c1ccccc1C` [Example 58, N-isopropyl-N-(3-{5-[2-(methoxymethyl)-2′-methylbiphenyl-4-yl]-1,2,4-oxadiazol-3-yl}benzyl)glycine, hydrochloride salt] were 7.87 nM, 2.02e-07 M and 3.91e-10 M.
At S1P1 [1], `COCc1cc(-c2nc(-c3cccc(CN(CC(=O)O)CC(C)C)c3)no2)ccc1-c1ccccc1C` [Example 59, N-isobutyl-N-(3-{5-[2-(methoxymethyl)-2′-methylbiphenyl-4-yl]-1,2,4-oxadiazol-3-yl}benzyl)glycine, hydrochloride salt] returned a concentration giving a half-maximal response (EC50) of 74.5 nM. In addition, the figures for the Ki at S1P3 (setting [5]), on S1P1 [2] (setting [4]) and on S1P1 [2] (setting [6]) were 8.49e-07 M, 1.1e-09 M and 7.94e-09 M, respectively.
`COCc1cc(-c2nc(-c3ccc(CNCC(=O)O)cc3)no2)ccc1-c1ccccc1C` [Example 60, N-(4-{5-[2-(methoxymethyl)-2′-methylbiphenyl-4-yl]-1,2,4-oxadiazol-3-yl}benzyl)glycine, hydrochloride salt] came in with an EC50 on S1P1 [1] of 1.78 nM. The inhibition constant Ki on S1P3 (setting [3]) was 1.93e-07 M; at S1P1 [2] (setting [4]) it was 3.09e-10 M.
The matching figures for `COCc1cc(-c2nc(-c3ccc(CNCC(=O)O)cc3)no2)ccc1-c1ccccc1F` [Example 61, N-(4-{5-[2′-fluoro-2-(methoxymethyl)biphenyl-4-yl]-1,2,4-oxadiazol-3-yl}benzyl)glycine, hydrochloride salt]: 3.36 nM, 1.91e-07 M and 2.26e-10 M.
Taken in the same sequence, the figures for `CCN(CCC(=O)O)Cc1cccc(-c2noc(-c3ccc(-c4ccccc4F)c(COC)c3)n2)c1` [Example 62, N-ethyl-N-(3-{5-[2′-fluoro-2-(methoxymethyl)biphenyl-4-yl]-1,2,4-oxadiazol-3-yl}benzyl)-beta-alanine, hydrochloride salt] were 2.91 nM, 1.72e-08 M and 1.68e-10 M.
Compound `CCN(CCC(=O)O)Cc1cccc(-c2noc(-c3ccc(-c4ccccc4C)c(COC)c3)n2)c1` [Example 63, N-ethyl-N-(3-{5-[2-(methoxymethyl)-2′-methylbiphenyl-4-yl]-1,2,4-oxadiazol-3-yl}benzyl)-beta-alanine, hydrochloride salt] returned an EC50 at S1P1 [1] of 3.38 nM. The Ki was 3.98e-08 M on S1P3 (setting [3]), 1.25e-07 M on S1P3 (setting [5]) and 1.61e-10 M on S1P1 [2] (setting [4]).

By EC50 is commonly meant the midpoint of the concentration-response curve. Higher therefore signals a need for much substance. As usually defined, the Ki is a dissociation constant, usually derived from enzyme kinetics or from competition with a known ligand.
